Measured values from patent EP2676962A1, “Derivatives of 1-aminoalkylphosphonate diaryl esters, method of 1-aminoalkylphosphonate diaryl ester derivatives preparation and their application” (priority 2012, dated 2013).
Read-outs that look alike come from different tables or passages of the source.

What was measured:
Format in all cases: biochemical
[1] = biological target: T1, human neutrophil elastase (HNE) (Homo sapiens, UniProt P08246); assay: Inhibitory activity toward human neutrophil elastase, fluorogenic substrate, microplate reader
T1 sequence (P08246 30-267): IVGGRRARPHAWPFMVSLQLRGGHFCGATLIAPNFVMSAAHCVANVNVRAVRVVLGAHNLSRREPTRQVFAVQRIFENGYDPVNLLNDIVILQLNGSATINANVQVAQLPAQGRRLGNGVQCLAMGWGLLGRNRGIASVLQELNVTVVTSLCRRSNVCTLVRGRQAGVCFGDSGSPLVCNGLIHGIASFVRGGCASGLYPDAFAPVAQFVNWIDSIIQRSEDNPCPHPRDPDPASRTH
Procedure: (§1) The biological activity of peptidyl derivatives of phosphonic analogs of valine, alanine, phenylalanine, 4-guanidinephenylglycine, leucine, and 1-aminobutyric acid, containing the N-terminal biotin residue were tested for their ability to inhibit proteolytic activity of selected serine proteases, and the control cysteine proteases. All tests were performed using a microplate reader. As enzyme substrates fluorescent peptides were used. The method to measure the activity of the compounds obtained are described below for each of the enzymes tested: human neutrophil elastase (HNE), porcine pancreatic elastase (PPE), subtilisin (Sub), cathepsin G (CatG), proteinase 3 (PR3), chymotrypsin (ChTry) trypsin (Try), papain (Pap) and cathepsin L (CatL). Measurement of the inhibitory activity was performed at different inhibitor concentrations ranging from 12.5 nM to 2000nm.
Measurement of inhibitory activity of compounds toward human neutrophil elastase (HNE).
The inhibitory activity assay is performed at 37°C in 0,01M HEPES, 0,5M NaCl, 0,03% Triton X-100 buffer, pH 7,5, within 10 min after initial pre-incubation of the enzyme with inhibitor tested at 37°C for 10 min. The enzyme concentration is 0,0025U/ml. Substrate used Me-Suc-Ala-Ala-Pro-Val-AFC at 25µM. Measurement is taken at an excitation wavelength of 400nm and 505nm emission.
(§2) The IC50 value is the concentration of inhibitor required to inhibit half of the enzyme activity after 10 minutes incubation.

[2] = biological target: porcine pancreatic elastase (PPE) (Sus scrofa, UniProt P00772); assay: Inhibitory activity toward porcine pancreatic elastase, fluorogenic substrate, microplate reader
porcine pancreatic elastase (PPE), sequence (P00772 27-266): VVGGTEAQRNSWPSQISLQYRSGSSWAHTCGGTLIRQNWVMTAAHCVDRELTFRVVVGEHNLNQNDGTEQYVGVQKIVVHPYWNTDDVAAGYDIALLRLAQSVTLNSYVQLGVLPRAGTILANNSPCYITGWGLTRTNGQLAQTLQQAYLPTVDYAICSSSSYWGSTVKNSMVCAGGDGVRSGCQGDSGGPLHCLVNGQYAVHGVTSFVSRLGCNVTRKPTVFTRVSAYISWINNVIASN
Procedure: as §1
Measurement of inhibitory activity of compounds toward porcine pancreatic elastase (PPE).
The inhibitory activity assay is performed at 37°C in 0,01M Tris-HCl, 0,05% Triton X-100 buffer, pH 8,5, within 10 min after initial pre-incubation of the enzyme with inhibitor tested at 37°C for 10 min. The enzyme concentration is 60nM. Substrate used Me-Suc-Ala-Ala-Pro-Val-AMC at 100µM. Measurement is taken at an excitation wavelength of 350nm and 460nm emission.
as §2

proteinase 3 (PR3) = biological target: T2, proteinase 3 (PR3) (Homo sapiens, UniProt P24158); assay: Inhibitory activity toward proteinase 3, fluorogenic substrate, microplate reader
T2 sequence (P24158 28-248): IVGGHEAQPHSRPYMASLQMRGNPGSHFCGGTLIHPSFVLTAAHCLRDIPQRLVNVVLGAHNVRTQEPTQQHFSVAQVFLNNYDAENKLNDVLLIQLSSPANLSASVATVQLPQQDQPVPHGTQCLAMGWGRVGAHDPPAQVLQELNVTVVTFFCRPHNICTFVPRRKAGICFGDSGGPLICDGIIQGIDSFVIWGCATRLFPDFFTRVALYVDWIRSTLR
Procedure: as §1
Measurement of inhibitory activity of compounds toward proteinase 3(PR3).
The inhibitory activity assay is performed at 37°C in 0,1M Tric-HCl, 0,5M NaCl buffer, pH 7,5, within 10 min after initial pre-incubation of the enzyme with inhibitor tested at 37°C for 10 min. The enzyme concentration is 17nM. Substrate used Abz-Tyr-Tyr-Abu-Anb-NH2 at 30µM. Measurement is taken at an excitation wavelength of 325nm and 400nm emission.
as §2

cathepsin G (CatG) = biological target: T3, cathepsin G (CatG) (Homo sapiens, UniProt P08311); assay: Inhibitory activity toward cathepsin G, fluorogenic substrate, microplate reader
T3 sequence (P08311 21-244): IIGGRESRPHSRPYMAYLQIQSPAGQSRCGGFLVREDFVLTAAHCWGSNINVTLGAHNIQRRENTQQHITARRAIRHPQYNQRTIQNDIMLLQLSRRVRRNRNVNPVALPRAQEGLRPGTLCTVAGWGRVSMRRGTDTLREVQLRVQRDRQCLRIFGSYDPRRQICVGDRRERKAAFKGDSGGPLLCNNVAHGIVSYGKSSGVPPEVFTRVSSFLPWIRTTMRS
Procedure: as §1
Measurement of inhibitory activity of compounds toward cathepsin G (CatG).
The inhibitory activity assay is performed at 37°C in 0,1M Tric-HCl, 0,5M NaCl buffer, pH 7,5, within 10 min after initial pre-incubation of the enzyme with inhibitor tested at 37°C for 10 min. The enzyme concentration is 100nM. Substrate used MCA-Phe-Val-Thr-Gnf-Ser-Trp-Anb-NH2 at 2.5µM. Measurement is taken at an excitation wavelength of 325nm and 400nm emission.
as §2

chymotrypsin (ChTry) = chymotrypsin (ChTry) (Bos taurus, UniProt P00766); assay: Inhibitory activity toward chymotrypsin, fluorogenic substrate, microplate reader; settings: 10 min pre-incubation at 37°C, pH 7,5, Suc-Ala-Ala-Pro-Phe-AMC 5µM; NI = brak inhibicji (no inhibition)
Procedure: as §1
Measurement of inhibitory activity of compounds toward […] (ChyTry).
The inhibitory activity assay is performed at 37°C in 0,1M HEPES, 0,5M NaCl buffer, pH 7,5, within 10 min after initial pre-incubation of the enzyme with inhibitor tested at 37°C for 10 min. The enzyme concentration is 3nM. Substrate used Suc-Ala-Ala-Pro-Phe-AMC at 5µM. Measurement is taken at an excitation wavelength of 350nm and 460nm emission.
as §2

subtilisin (Sub) = subtilisin (Sub) (Bacillus licheniformis, UniProt P00780); assay: Inhibitory activity toward subtilisin, fluorogenic substrate, microplate reader
subtilisin (Sub), sequence (P00780 106-379): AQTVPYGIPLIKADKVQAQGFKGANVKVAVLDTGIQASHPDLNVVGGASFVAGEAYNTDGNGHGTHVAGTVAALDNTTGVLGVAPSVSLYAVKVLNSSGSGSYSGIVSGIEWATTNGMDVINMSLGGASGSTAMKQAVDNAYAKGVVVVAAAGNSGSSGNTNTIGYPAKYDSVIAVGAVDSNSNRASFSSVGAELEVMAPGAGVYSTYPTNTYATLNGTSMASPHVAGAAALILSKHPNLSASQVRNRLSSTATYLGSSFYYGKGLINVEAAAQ
Procedure: as §1
Measurement of inhibitory activity of compounds toward subtilisin (Sub).
The inhibitory activity assay is performed at 37°C in 0,05M Tris-HCl, 1M NaCl, 0,01% Triton X-100 buffer, pH 7,5, within 10 min after initial pre-incubation of the enzyme with inhibitor tested at 37°C for 10 min. The enzyme concentration is 5nM. Substrate used Me-Suc-Ala-Ala-Pro-Phe-AMC at 5µM. Measurement is taken at an excitation wavelength of 350nm and 460nm emission.
as §2

trypsin (Try) = biological target: T4, trypsin (Try) (Bos taurus, UniProt P00760); assay: Inhibitory activity toward trypsin, fluorogenic substrate, microplate reader; settings: 10 min pre-incubation at 37°C, pH 7,5, Cbz-Arg-AFC 100µM; NI = brak inhibicji (no inhibition)
T4 sequence (P00760 24-246): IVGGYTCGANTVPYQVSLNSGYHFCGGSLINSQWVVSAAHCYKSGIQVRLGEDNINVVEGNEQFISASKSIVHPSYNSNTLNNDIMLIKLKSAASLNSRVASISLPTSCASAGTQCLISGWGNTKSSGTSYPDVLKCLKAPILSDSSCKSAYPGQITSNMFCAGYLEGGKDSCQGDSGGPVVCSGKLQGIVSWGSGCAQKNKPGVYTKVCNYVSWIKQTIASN
Procedure: as §1
Measurement of inhibitory activity of compounds toward trypsin (Try).
The inhibitory activity assay is performed at 37°C in 0,1M HEPES, 0,5M NaCl, 0,03% Triton X-100 buffer, pH 7,5, within 10 min after initial pre-incubation of the enzyme with inhibitor tested at 37°C for 10 min. The enzyme concentration is 25nM. Substrate used Cbz-Arg-AFC at 100µM. Measurement is taken at an excitation wavelength of 400nm and 505nm emission.
as §2

[3] = 10 min pre-incubation at 37°C, pH 7,5, Me-Suc-Ala-Ala-Pro-Val-AFC 25µM, NI = brak inhibicji (no inhibition)
[4] = read-out: PR3 IC50, 10 min pre-incubation at 37°C, pH 7,5, Abz-Tyr-Tyr-Abu-Anb-NH2 30µM, NI = brak inhibicji (no inhibition)
[5] = 10 min pre-incubation at 37°C, pH 7,5, MCA-Phe-Val-Thr-Gnf-Ser-Trp-Anb-NH2 2.5µM, NI = brak inhibicji (no inhibition)
[6] = 10 min pre-incubation at 37°C, pH 7,5, Abz-Tyr-Tyr-Abu-Anb-NH2 30µM, NI = brak inhibicji (no inhibition)
[7] = 10 min pre-incubation at 37°C, pH 7,5, Me-Suc-Ala-Ala-Pro-Phe-AMC 5µM, NI = brak inhibicji (no inhibition)
[8] = read-out: PPE IC50, 10 min pre-incubation at 37°C, pH 8,5, Me-Suc-Ala-Ala-Pro-Val-AMC 100µM, NI = brak inhibicji (no inhibition)

SMILES: CSc1ccc(OP(=O)(Oc2ccc(SC)cc2)C(CC(C)C)NC(=O)C2CCCN2C(=O)C(NC(=O)CCCCC2SCC3NC(=O)NC32)C(C)C)cc1 (stereo not drawn) [Compound 12, bis(4-(methylthio)phenyl) (3-methyl-1-(1-(3-methyl-2-(5-(2-oxohexahydro-1H-thieno[3,4-d]imidazol-4-yl)pentanamido)butanoyl)pyrrolidine-2-carboxamido)butyl)phosphonate]
- IC50 [1]: 66.5 ± 6.5 nM
- HNE Kobs/[I] [1, 3]: 1.7*10^4 M^-1S^-1
- IC50 [2]: 289 ± 10 nM
- PPE Kobs/[I] ([2]; 10 min pre-incubation at 37°C, pH 8,5, Me-Suc-Ala-Ala-Pro-Val-AMC 100µM, NI = brak inhibicji (no inhibition)): 4*10^3 M^-1S^-1
- IC50 (proteinase 3 (PR3); [4]): > 5000 nM
- IC50 (cathepsin G (CatG)): 436 ± 22 nM
- Cat G Kobs/[I] (cathepsin G (CatG); [5]): 2.6*10^3 M^-1S^-1
- ChyTr Kobs/[I] (chymotrypsin (ChTry)): 4.5*10^4 M^-1S^-1
- IC50 (subtilisin (Sub); read-out: Sub IC50, 10 min pre-incubation at 37°C, pH 7,5, Me-Suc-Ala-Ala-Pro-Phe-AMC 5µM, NI = brak inhibicji (no inhibition)): > 5000 nM
- Try Kobs/[I] (trypsin (Try)): 1.9*10^3 M^-1S^-1

SMILES: CCC(NC(=O)C1CCCN1C(=O)C(NC(=O)CCCCC1SCC2NC(=O)NC21)C(C)C)P(=O)(Oc1ccc(SC)cc1)Oc1ccc(SC)cc1 (stereo not drawn) [Compound 13, bis(4-(methylthio)phenyl) (1-(1-(3-methyl-2-(5-(2-oxohexahydro-1H-thieno[3,4-d]imidazol-4-yl)pentanamido)butanoyl)pyrrolidine-2-carboxamido)propyl)phosphonate]
- IC50 [1]: 2.75 ± 0.05 nM
- HNE Kobs/[I] [1, 3]: 4.2*10^5 M^-1S^-1
- IC50 [2]: 23.5 ± 1.95 nM
- IC50 (proteinase 3 (PR3)): 227 ± 17 nM
- PR3 Kobs/[I] (proteinase 3 (PR3); [6]): 1.0*10^4 M^-1S^-1
- IC50 (cathepsin G (CatG); read-out: Cat G IC50, 10 min pre-incubation at 37°C, pH 7,5, MCA-Phe-Val-Thr-Gnf-Ser-Trp-Anb-NH2 2.5µM, NI = brak inhibicji (no inhibition)): > 5000 nM
- ChyTr Kobs/[I] (chymotrypsin (ChTry)): 1.2*10^3 M^-1S^-1
- IC50 (subtilisin (Sub)): 147 ± 4 nM
- Sub Kobs/[I] (subtilisin (Sub); [7]): 7.8*10^3 M^-1S^-1
- Try Kobs/[I] (trypsin (Try)): 3*10^2 M^-1S^-1

SMILES: CSc1ccc(OP(=O)(Oc2ccc(SC)cc2)C(CC(C)C)NC(=O)C2CCCN2C(=O)CCCCC2SCC3NC(=O)NC32)cc1 (stereo not drawn) [Compound 8, bis(4-(methylthio)phenyl) (3-methyl-1-(1-(5-(2-oxohexahydro-1H-thieno[3,4-d]imidazol-4-yl)pentanoyl)pyrrolidine-2-carboxamido)butyl)phosphonate]
- IC50 [1]: 3800 ± 250 nM
- HNE Kobs/[I] [1, 3]: 3.0*10^2 M^-1S^-1
- IC50 [2, 8]: > 5000 nM
- IC50 (proteinase 3 (PR3); [4]): > 5000 nM
- IC50 (cathepsin G (CatG)): 1100 ± 139 nM
- Cat G Kobs/[I] (cathepsin G (CatG); [5]): 1.0*10^3 M^-1S^-1
- ChyTr Kobs/[I] (chymotrypsin (ChTry)): 2.9*10^3 M^-1S^-1
- IC50 (subtilisin (Sub)): 11.7 ± 0.61 nM
- Sub Kobs/[I] (subtilisin (Sub); [7]): 9.9*10^4 M^-1S^-1
- Try Kobs/[I] (trypsin (Try)): 1*10^3 M^-1S^-1

SMILES: CSc1ccc(OP(=O)(Oc2ccc(SC)cc2)C(NC(=O)C(NC(=O)C(NC(=O)C(Cc2ccccc2)NC(=O)CCC(=O)NCCCCCNC(=O)CCCCC2SCC3NC(=O)NC32)C(C)C)C(C)O)c2ccc(NC(=N)N)cc2)cc1 (stereo not drawn) [Compound 11, bis(4-(methylthio)phenyl) 10-benzyl-1-(4-guanidinophenyl)-4-(1-hydroxyethyl)-7-isopropyl-3,6,9,12,15,23-hexaoxo-27-(2-oxohexahydro-1H-thieno[3,4-d]imidazol-4-yl)-2,5,8,11,16,22-hexaazaheptacosylphosphonate]
- IC50 ([1]; read-out: HNE IC50, 10 min pre-incubation at 37°C, pH 7,5, Me-Suc-Ala-Ala-Pro-Val-AFC 25µM, NI = brak inhibicji (no inhibition)): > 5000 nM
- IC50 [2, 8]: > 5000 nM
- IC50 (proteinase 3 (PR3)): 603 ± 49 nM
- PR3 Kobs/[I] (proteinase 3 (PR3); [6]): 3.8*10^3 M^-1S^-1
- IC50 (cathepsin G (CatG)): 4740 ± 556 nM
- Cat G Kobs/[I] (cathepsin G (CatG); [5]): 2.4*10^2 M^-1S^-1
- IC50 (subtilisin (Sub)): 480 ± 15.5 nM
- Sub Kobs/[I] (subtilisin (Sub); [7]): 2.4*10^3 M^-1S^-1
- Try Kobs/[I] (trypsin (Try)): 2.7*10^3 M^-1S^-1
